From patent publication US20210355501A1, “INTERLEUKIN-8 FOR MAINTENANCE OF HUMAN ACUTE MYELOID LEUKEMIA AND MYELODYSPLASTIC SYNDROME AND USES THEREOF” (Albert Einstein College of Medicine, priority 2018, published 2021)
“Also recorded” adds a separate entry of the source.

How the values were obtained:
CXCR2 = molecular target: T1, CXCR2 (Homo sapiens, UniProt P25025); details: cited from earlier work
T1 sequence (P25025 1-360): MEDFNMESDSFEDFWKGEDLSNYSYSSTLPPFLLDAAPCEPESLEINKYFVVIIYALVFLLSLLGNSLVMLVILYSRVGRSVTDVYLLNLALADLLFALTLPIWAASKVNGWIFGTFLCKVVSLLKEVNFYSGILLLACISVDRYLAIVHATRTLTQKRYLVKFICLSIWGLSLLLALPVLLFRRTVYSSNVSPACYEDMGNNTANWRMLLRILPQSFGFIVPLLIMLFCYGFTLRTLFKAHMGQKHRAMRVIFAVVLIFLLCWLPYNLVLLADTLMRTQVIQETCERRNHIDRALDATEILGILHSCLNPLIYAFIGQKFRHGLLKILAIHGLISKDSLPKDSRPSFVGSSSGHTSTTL

AML cell lines = details: all AML cell lines; cited from earlier work
[1] = test system: healthy control CD34+ cells; details: cited from earlier work
[2] = test system: primary samples from AML and high risk MDS cases; details: cited from earlier work
[3] = test system: primary AML patient cells; assay: AML cell engraftment in NSG mice pre-transplanted with doxycycline-induced hIL-8-transgenic bone marrow cells; type: in vivo, mouse; details: 4 months post-transplantation; for increase of AML cell engraftment vs uninduced control: p=0.0106, N=8
Source text: FIG. 3. Xenotransplantation of primary AML cells into NSG mice pre-transplanted with hIL8-transgenic and doxycycline-induced congenic bone marrow cells leads to a more than 10-fold increase (p=0.0106, N=8) of AML cell engraftment.
We have generated a new transgenic mouse model in which we inserted a doxycycline-inducible human IL-8 transgene into the immunocompromised NSG mouse strain. We then performed congenic transplantation of hIL-8-transgenic bone marrow cells into 8 parental NSG mice, followed by doxycycline-triggered induction of hIL-8 in 4 of the recipient mice. 4 uninduced mice served as a control. We then xenotransplanted 5×10^6 leukemic cells from an AML patient into these animals and determined AML cell engraftment in the bone marrow 4 months post-transplantation. […] We have now a novel transgenic mouse system available that permits for the first time the generation of robust primary xenografts and PDX models from AML and MDS patients' cells, which can be used for drug development and testing purposes as well as functional/mechanistic studies.

IL8 = assay: serum IL8 levels by ELISA in patients; type: in vivo, human; details: 3 patients
Source text: FIG. 1A-1C. IL8 is detectable in MDS/AML serum and correlated with disease severity. ELISA for IL8 was done on controls and MDS and AML patient serum samples. […] IL8 levels were increased after transformation of low risk MDS to higher risk MDS/AML (B) and decreased after treatment with 5-Azacytidine (C).
It was previously shown that IL8 mRNA is overexpressed in MDS and AML cells. It was now determined whether IL8 can be detected in serum of patients with MDS and AML. A total of 33 patients (MDS low risk (21), MDS high risk (6) and AML (6)) and 30 controls sera were collected and analyzed for IL8 levels by ELISA. […] Furthermore, IL8 levels went up in 3 patients that transformed from low risk MDS to higher risk MDS or AML (FIG. 1B). Additionally, IL8 levels dropped after treatment in another 3 patients that were treated with 5-Azacytidine (FIG. 1C).

[4] = test system: patient-derived xenografts from MDS/AML; assay: engraftment of patient-derived MDS/AML xenografts in NSG mice given exogenous recombinant human IL8; type: in vivo, mouse; details: for engraftment of primary MDS and AML patients' cells: 3 patient derived xenografts (1 AML, 2 MDS)
Source text: FIG. 2A-2E. Efficacy of human IL8 addition in patient-derived xenografts from MDS/AML. […] Averaged data in (C); data from individual subjects in (D). The improvement in engraftment is sustained (as shown for representative PDX) (E).

NS(=O)(=O)c1c(Cl)ccc(NC(=O)Nc2cccc(Cl)c2Cl)c1O [SB332235]
selectivity for CXCR2 over CXCR1 (CXCR2): 100 fold
proliferation (AML cell lines): dose dependent decrease in proliferation
growth of healthy control CD34+ cells [1]: only minimally affecting growth
proliferation in primary samples [2]: significant inhibition of proliferation

hIL-8: human IL-8 expressed from doxycycline-inducible transgene in transplanted bone marrow cells of NSG mice
AML cell engraftment in the bone marrow (average) ([3]; doxycycline-induced hIL-8, 5×10^6 leukemic cells): 42.2%
increase of AML cell engraftment vs uninduced control [3]: 10.4 fold
increase of AML cell engraftment vs uninduced control ([3]; listed as hIL8): more than 10 fold

Nc1ncn([C@@H]2O[C@H](CO)[C@@H](O)[C@H]2O)c(=O)n1 [5-Azacytidine]
IL8 levels in serum after treatment (IL8): decreased; also recorded: dropped

rhIL8: exogenous recombinant human IL8 injected into xenotransplant recipient mice
engraftment of primary MDS and AML patients' cells [4]: increased engraftment
engraftment of primary MDS and AML patients' cells ([4]; listed as IL8): highly significant increase
engraftment from AML sample ([4]; NSG mice, after 3 weeks of treatment, vs vehicle controls): higher engraftment
